Measurements from patent publication US9079913B2, “Spiro-oxindole MDM2 antagonists” (The Regents of the University of Michigan, priority 2009, dated 2015).
Read-outs that look alike come from different tables or passages of the source.

Key:
[1] = test system: cancer cell lines with wild-type p53 / mutated or deleted p53 (ATCC); assay: Cell growth assay (WST-8), other cancer cell lines; format: cell-based
[2] = test system: Isogenic HCT-116 colon cancer cell lines; assay: cells; format: cell-based;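 also: cells grown in 96-well plates in McCoy's 5A medium with 10% FBS, exposed to compound for 4 days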
Protocol: Cells were seeded in 96-well flat bottom cell culture plates at a density of 2−3×10^3 cells/well with compounds and incubated for 4 days.

[3] = In vitro microsomal stability, rat; format: in vitro ADME
[4] = Homo sapiens, LNCaP, Table 19B, LNCaP cells, read-out: Inhibition of cell growth IC50, LNCaP
[5] = Homo sapiens, HCT-116, read-out: Inhibition of cell growth IC50, HCT116 p53 WT, Table 19B, HCT116 p53 WT
[6] = Homo sapiens, LNCaP, Table 19A, LNCAP cells, p53 wild-type, cell growth, read-out: LNCAP (p53 wild-type) IC50
[7] = Homo sapiens, PC-3, Table 19A, PC-3 cells, deleted p53, cell growth, read-out: PC-3 (deleted p53) IC50
[8] = Homo sapiens, HCT-116, read-out: HCT-116 (p53-/-) IC50, Table 19A, HCT-116 p53-/-, cell growth
[9] = Homo sapiens, HCT-116, read-out: HCT-116 (p53 wild-type) IC50, Table 19A, HCT-116 p53 wild-type, cell growth
[10] = Homo sapiens, SJSA-1, Table 19A, SJSA-1 cells, p53 wild-type, cell growth, read-out: SJSA-1 (p53 wild-type) IC50
[11] = read-out: SJSA-1 (p53 wild-type) IC50

Structure (SMILES) | IC50 [1, 6] | IC50 [1, 7] | IC50 [2, 8] | IC50 [2, 9] | IC50 [1, 10] | other results
CN1[C@@H](C(=O)NCCN2CCOCC2)[C@H](c2cccc(Cl)c2F)[C@@]2(C(=O)Nc3cc(F)c(F)cc32)[C@H]1CC(C)(C)C [MI-722] | – | – | – | – | – | IC50 [1, 4]: > 100 µM; IC50 ([1]; Homo sapiens, PC-3, Table 19B, PC3 cells, read-out: Inhibition of cell growth IC50, PC3): > 100 µM; IC50 ([2]; Homo sapiens, HCT-116, read-out: Inhibition of cell growth IC50, HCT116 p53 KO, Table 19B, HCT116 p53 KO): > 100 µM; IC50 [2, 5]: > 100 µM
CNCC(=O)N1CCN(C(=O)[C@@H]2N[C@H](CC(C)(C)C)[C@]3(C(=O)Nc4cc(Cl)c(F)cc43)[C@H]2c2cccc(Cl)c2)CC1 [MI-747] | 1.3 µM | 3.7 µM | 3.9 µM | 1.3 µM | – | –
CC(C)(C)C[C@H]1N[C@@H](C(=O)NCC[C@H]2CC[C@@H](O)C2)[C@H](c2cccc(Cl)c2F)[C@@]12C(=O)Nc1cc(Cl)ccc12 [MI-753] | – | – | – | – | – | IC50 [1, 4]: 3.2 ± 0.3 µM; IC50 ([1]; Table 19B, PC3 cells, read-out: Inhibition of cell growth IC50, PC3): 24.7 ± 2.7 µM; IC50 [2, 5]: 2.9 ± 0.1 µM; IC50 ([2]; read-out: Inhibition of cell growth IC50, HCT116 p53 KO, Table 19B, HCT116 p53 KO): 21.8 ± 4.9 µM
CC(C)(C)C[C@H]1N[C@@H](C(=O)NCCN2CCCC2)[C@H](c2cccc(Cl)c2F)[C@@]12C(=O)Nc1cc(Cl)c(F)cc12 [MI-763] | – | – | – | – | – | % of compound remaining when incubated in rat liver microsomes ([3]; Table 17, 0 min): 100%; % of compound remaining when incubated in rat liver microsomes ([3]; Table 17, 4 min): 96.8%; % of compound remaining when incubated in rat liver microsomes ([3]; Table 17, 6 min): 97.3%; % of compound remaining when incubated in rat liver microsomes ([3]; Table 17, 10 min): 85.6%; % of compound remaining when incubated in rat liver microsomes ([3]; Table 17, 15 min): 72.1%; % of compound remaining when incubated in rat liver microsomes ([3]; Table 17, 30 min): 61.5%; microsomal stability (in words) ([3]; rat liver microsomes): improved microsomal stability over MI-219
CC(C)(C)C[C@H]1N[C@@H](C(=O)NCCCCN2CCCC2)[C@H](c2cccc(Cl)c2F)[C@@]12C(=O)Nc1cc(Cl)c(F)cc12 [MI-765] | 1.5 ± 0.9 µM | 2.6 ± 0.2 µM | 4.7 ± 2 µM | 1.1 ± 0.2 µM | 1.4 ± 0.1 µM | –
CC(C)(C)C[C@H]1N[C@@H](C(=O)NCC[C@H]2CC[C@H](NS(C)(=O)=O)C2)[C@H](c2cccc(Cl)c2F)[C@@]12C(=O)Nc1cc(Cl)c(F)cc12 [MI-766] | 0.9 µM | 5.9 ± 2.2 µM | 6.9 ± 1.4 µM | 0.7 µM | 1.7 ± 1.4 µM | –
CC(C)(C)C[C@H]1N[C@@H](C(=O)NCC[C@H]2CC[C@H](N)C2)[C@H](c2cccc(Cl)c2F)[C@@]12C(=O)Nc1cc(Cl)c(F)cc12 [MI-767] | 0.9 ± 0.2 µM | 2.2 ± 0.1 µM | 2.4 ± 1 µM | 0.7 ± 0.2 µM | 0.9 ± 0.6 µM | –
CC(C)(C)C[C@H]1N[C@@H](C(=O)NCCCNS(C)(=O)=O)[C@H](c2cccc(Cl)c2F)[C@@]12C(=O)Nc1cc(Cl)c(F)cc12 [MI-768] | 0.7 ± 0.2 µM | 7.3 ± 0.8 µM | 9.8 ± 0.4 µM | 0.5 ± 0.2 µM | 0.8 ± 0.1 µM | –
CC(C)(C)C[C@H]1N[C@@H](C(=O)NCCNS(C)(=O)=O)[C@H](c2cccc(Cl)c2F)[C@@]12C(=O)Nc1cc(Cl)c(F)cc12 [MI-769] | 1.5 µM | 13 µM | 10.2 µM | 1.6 µM | 0.6 µM | –
CC(C)(C)C[C@H]1N[C@@H](C(=O)NC2CCC(O)CC2)[C@H](c2cccc(Cl)c2F)[C@@]12C(=O)Nc1cc(F)c(F)cc12 (some centres unmarked) [MI-786] | – | – | – | – | – | IC50 [1, 11]: 0.8 µM
CC(C)(C)C[C@H]1N[C@@H](C(=O)NC2CCC(O)CC2)[C@H](c2cccc(Cl)c2F)[C@@]12C(=O)Nc1cc(F)c(F)cc12 (some centres unmarked) [MI-7104] | – | – | – | – | – | IC50 ([1]; read-out: LNCAP (p53 wild-type) IC50): < 3 µM; IC50 ([1]; read-out: PC-3 (deleted p53) IC50): > 10 µM; IC50 [1, 11]: < 3 µM
CC(C)(C)C[C@@H]1N[C@@H](C(=O)NC2CCC(O)CC2)[C@H](c2cccc(Cl)c2F)[C@]12C(=O)Nc1cc(Cl)ccc12 (some centres unmarked) [MI-77301] | – | – | – | 0.1 µM | – | IC50 ([1]; Homo sapiens, LNCaP, read-out: LNCAP (p53 wild-type) IC50): 0.1 µM; IC50 ([1]; Homo sapiens, PC-3, read-out: PC-3 (deleted p53) IC50): 13 µM; IC50 ([1]; Homo sapiens, SJSA-1, read-out: SJSA-1 (p53 wild-type) IC50): 0.8 µM
CC(C)(C)C[C@@H]1N[C@@H](C(=O)NC2CCC(O)CC2)[C@H](c2cccc(F)c2F)[C@]12C(=O)Nc1cc(Cl)ccc12 (some centres unmarked) [MI-710201] | – | – | – | – | – | IC50 ([2]; Homo sapiens, HCT-116, read-out: HCT-116 (p53 wild-type) IC50): 0.3 µM
